The values that follow come from patent publication US20230295152A1 (SENDA BIOSCIENCES, INC., priority 2019, published 2023).

In brackets after ≈: the same amount, converted by molar mass. Read-outs that look alike come from different tables or passages of the source.

Data set [1] in a line: Solubility Determination Assay in PBS pH 1.6 and pH 7.4. Format: physicochemical. As to conditions: PBS buffer, aqueous buffer, kinetic from dmso stock. How it is done: The stock solutions of test compounds and control compound progesterone were prepared in DMSO at the concentrations of 10 mM. 15 μL of stock solution (10 mM) of each sample was placed in order into their proper 96-well rack. 485 μL of PBS pH 1.6 and pH 7.4 were added into each vial of the cap-less Solubility Sample plate. The assay was performed in singlet. One stir stick was added to each vial and then the vial was sealed using a molded PTFE/Silicone plug. […] After completion of the 2 hours, plugs were removed and the stir sticks were removed using a big magnet. The samples from the Solubility Sample plate were transferred into the filter plate. Using the Vacuum Manifold, all the samples were filtered. An aliquot of 5 μL was taken from the filtrate followed by addition of 495 μL of a mixture of H2O and acetonitrile containing internal standard (1:1). A certain proportion of ultrapure water was used to dilute the diluent according to the peak shape. The dilution factor was changed according to the solubility values and the LC-MS signal response.
From the 10 mM DMSO STD plate, 6 μL was transferred into the remaining empty plate, and then 194 μL of DMSO were added to that plate to have a STD concentration of 300 μM. From the 300 μM DMSO STD plate, 5 μL were transferred into the remaining empty plate, and then 495 μL of a mixture of H2O and acetonitrile containing internal standard (1:1) were added to that plate to have a final STD concentration of 3 μM. A certain proportion of ultrapure water was used to dilute the diluent according to the peak shape. The concentrations of the standard samples were changed according to the LC-MS signal response.
The plate was placed into the well plate autosampler. The samples were evaluated by LC-MS/MS analysis.
All calculations were carried out using Microsoft Excel.
The filtrate was analyzed and quantified against a standard of known concentration using LC coupled with mass spectral peak identification and quantitation. Solubility values of the test compound and control compound were calculated as follows: […]
Any value of the compounds that was not within the specified limits was rejected and the experiment was repeated.
“+++” indicates a solubility value equal to or greater than 1 μM, “++” indicates a solubility value between 0.1 and 1 μM, and “+” indicates a solubility value less than 0.1 μM.

A short description of data set [2]: Liver Microsome Stability Assay, human. As to conditions: human liver microsomes. The format is in vitro ADME. Here is the method:
Two separate experiments were performed as follows.
With Cofactors (NADPH): 25 μL of 10 mM NADPH was added to the incubations. The final concentrations of microsomes and NADPH were 0.5 mg/mL and 1 mM, respectively. The final concentration of microsomes was 0.5 mg/mL. The mixture was pre-warmed at 37° C. for 10 minutes. The reaction was started with the addition of 2.5 μL of 100 μM control compound or test compound solutions. Verapamil was used as positive control in this study. The final concentration of test compound or control compound was 1 μM. The incubation solution was incubated in water batch at 37° C. Aliquots of 25 μL were taken from the reaction solution at 0.5, 5, 15, 30 and 60 minutes. The reaction was stopped by the addition of 5 volumes of cold acetonitrile with IS (200 nM caffeine and 100 nM tolbutamide). Samples were centrifuged at 3, 220 g for 40 minutes. Aliquot of 100 μL of the supernatant was mixed with 100 μL of ultra-pure H2O and then used for LC-MS/MS analysis.
Data Analysis: All calculations were carried out using Microsoft Excel. Peak areas were determined from extracted ion chromatograms. The slope value, k, was determined by linear regression of the natural logarithm of the remaining percentage of the parent drug vs. incubation time curve.
The in vitro half-life (in vitro t1/2) was determined from the slope value:
Conversion of the in vitro t1/2 (min) into the in vitro intrinsic clearance (in vitro CLint, in μL/min/mg protein) was done using the following equation (mean of duplicate determinations): […]
The calculations of Scaled-up CLint(mL/min/kg), Predicted CLH (mL/min/kg) and EH were done using the following equation:
Scaled-up CLint=(0.693/t1/2)×(1/(microsomal protein concentration(0.5 mg/mL)))×Scaling Factors;Predicted CLH=(QH×Scaled-up CLint×fub)/(QH+Scaled-up CLint×fub);EH=Predicted CLH/QH
where QH is the hepatic blood flow (mL/min/kg) (Table 32), • fub is the fraction of unbound drug in plasma which is assumed to be 1.
“+++” indicates a Clint value less than 10 mL/min/Kg, […] indicates a Clint between 10 and 20 mL/min/Kg, and “+” indicates a Clint above 20 mL/min/Kg.
(In general: Liver microsomes are a subcellular fraction often used to study metabolism.)

The next data set deals with T1, AHR (Homo sapiens, UniProt P35869).
T1 construct: other cell line with a DRE-luciferase reporter stably transfected; endogenous in cells; host or cells: HepG2 AhR-Lucia reporter cells
T1 sequence (P35869 11-848): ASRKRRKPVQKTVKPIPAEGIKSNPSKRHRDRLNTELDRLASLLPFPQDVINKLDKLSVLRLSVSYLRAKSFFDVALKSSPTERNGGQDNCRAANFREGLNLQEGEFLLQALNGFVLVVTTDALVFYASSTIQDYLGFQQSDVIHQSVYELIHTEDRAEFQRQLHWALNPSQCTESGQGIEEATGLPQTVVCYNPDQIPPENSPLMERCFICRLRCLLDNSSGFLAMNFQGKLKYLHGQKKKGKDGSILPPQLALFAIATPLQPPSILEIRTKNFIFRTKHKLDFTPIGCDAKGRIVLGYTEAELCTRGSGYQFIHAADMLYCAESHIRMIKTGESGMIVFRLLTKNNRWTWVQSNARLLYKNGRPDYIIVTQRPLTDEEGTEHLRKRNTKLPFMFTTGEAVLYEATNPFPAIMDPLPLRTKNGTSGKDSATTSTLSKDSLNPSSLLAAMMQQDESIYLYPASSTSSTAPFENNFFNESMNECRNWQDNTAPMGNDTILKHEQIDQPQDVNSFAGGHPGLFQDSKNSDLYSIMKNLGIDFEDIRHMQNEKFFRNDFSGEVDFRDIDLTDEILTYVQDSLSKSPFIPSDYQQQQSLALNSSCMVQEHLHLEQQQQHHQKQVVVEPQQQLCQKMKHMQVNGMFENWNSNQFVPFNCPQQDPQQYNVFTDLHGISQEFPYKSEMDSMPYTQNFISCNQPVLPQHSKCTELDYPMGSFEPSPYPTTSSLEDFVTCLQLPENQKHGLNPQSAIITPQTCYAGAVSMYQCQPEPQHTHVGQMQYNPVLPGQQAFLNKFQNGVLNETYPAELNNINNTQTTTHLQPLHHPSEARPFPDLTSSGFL
In words: DRE-Luciferase Reporter Assay, HepG2 AhR-Lucia reporter cells. Format: cell-based. As to conditions: with AHR activating ligand at EC50, read-out: HepG2-Luc IC50. An outline of the steps: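 DRE-luciferase reporter cells (e.g. HepG2 AhR-Lucia, 20000 cells) treated with antagonist log dilutions from 100 uM, then an AHR agonist (e.g. TCDD, kynurenine, ITE, FICZ) at its EC50 added after 1 hr. Secreted luciferase measured after 24 or 48 h (QUANTI-Luc); IC50 = concentration halving luciferase activity.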
In general terms: Reporter assays use an easily measured gene product as a stand-in for the process of interest.

Where [3] appears, read: PBS pH 1.6, 25° C., read-out: Aq. Solubility at pH = 1.6.
The mark [4] stands for this setting: PBS pH 7.4, 25° C., read-out: Aq. Solubility at pH = 7.4.

Consider `C[C@H](n1cnc2c(-c3cccnc3)nc(-c3ccc(Cl)cc3)cc2c1=O)C(C)(C)O` [Compound 36], for which the solubility at 2 h in data set [1] (setting [3]) was no less than 1 µM; in data set [1] (setting [4]) it was less than 0.1 µM. Besides, in data set [2], the “Human liver microsome clearance” value is “+++ (“+++” indicates a Clint value less than 10 mL/min/Kg)”. Also, at AHR, the IC50 was less than 100 nM.
The corresponding values for `Cc1ccc(-c2cc3c(=O)n([C@@H](C)CO)cnc3c(-c3cccc(F)c3)n2)cc1` [Compound 48, 8-(3-fluorophenyl)-3-[(1S)-2-hydroxy-1-methyl-ethyl]-6-(p-tolyl)pyrido[3,4-d]pyrimidin-4-one] are no less than 1 µM, 0.1 to 1 µM (≈ 0.0389 to 0.389 µg/mL), “+++ (“+++” indicates a Clint value less than 10 mL/min/Kg)” and less than 100 nM.
The corresponding values for `C[C@@H](CO)n1cnc2c(-c3cccc(F)c3)nc(-c3ccc(OC(F)(F)F)cc3)cc2c1=O` [Compound 49, 8-(3-fluorophenyl)-3-[(1S)-2-hydroxy-1-methyl-ethyl]-6-[4-(trifluoromethoxy)phenyl]pyrido[3,4-d]pyrimidin-4-one] are less than 0.1 µM, less than 0.1 µM, “+++ (“+++” indicates a Clint value less than 10 mL/min/Kg)” and less than 100 nM.

As usually defined, the solubility is the concentration that dissolves in the medium under given conditions. By IC50 is commonly meant the midpoint of a concentration-inhibition curve.
